Assay results reported in US11472857B2 (Purdue Research Foundation, priority 2015, dated 2022).
Entries after “also recorded” stand apart in the source; their conditions may differ.

Test system: male Wistar rats
Experiment: In vivo blood glucose elevation after s.c. injection
Set-up: species or system rat
Protocol: Rats were catheterized to enable collection of blood samples at various time points. The total blood glucose level was measured by withdrawing blood at regular intervals (5-120 min) and tested using [sequence] LITE (glucose test meters, Abbott, Chicago, Ill.).

| Substance | Maximum elevation in blood glucose (2.8 nmol/kg s.c.) [mg/dL] | Blood glucose elevation compared with native glucagon (7.1 nmol/kg s.c.) | Maximum increase in blood glucose (7.1 nmol/kg s.c.) [mg/dL] | Time of peak blood glucose (7.1 nmol/kg s.c.) [min] |
| --- | --- | --- | --- | --- |
| phospho-Ser16-glucagon | ~10 | activity comparable to that of native glucagon | ~50 | 20 |
| phospho-Thr7-glucagon | – | slower response and a somewhat lower blood glucose peak; also recorded: somewhat slower increase | – | – |
| phospho-Tyr13-glucagon | – | response similar to that of phospho-Thr5-glucagon and phospho-Ser16-glucagon; also recorded: comparable to native glucagon | – | – |
